Measured values published in patent publication US11518750B2, “3-methylideneoxan-4-one compounds and substituted derivatives thereof as inhibitors of telomerase” (NORTHWESTERN UNIVERSITY, priority 2019, dated 2022).

Legend:
[1] = target: T1, endogenous telomerase in MCF-7 and A549 cells (Homo sapiens, UniProt O14746); assay: Endogenous telomerase activity after cell treatment (primer extension); format: cell-based; details: 10 μM, 24 h
T1 construct: endogenous in cells; host or cells: MCF-7 and A549
Protocol: For FIG. 4C, the control or treated cells were prepared and collected as pellets of 5×10^6 cells each at NW and pellets were shipped to CMRI on dry ice. Frozen cell pellets were thawed on wet ice and suspended in 1 mL telomerase buffer supplemented with 1 mM PMSF. Endogenous telomerase was immunopurified and assayed as described.

Saos-2 = assay: Cell viability, telomerase-negative cells; format: cell-based; details: Saos-2, up to 100 μM
[2] = Liver microsomal stability assay; format: in vitro ADME; details: in words
Protocol: Liver Microsomal Stability Assay. Assay was conducted using the Corning UltraPool HLM 150 Mixed Gender microsomal kit (Corning Life Sciences) according to the manufacturer's protocol.

[3] = target: T2, telomerase in MCF7 cells in culture (Homo sapiens, UniProt O14746); assay: TRAP assay in cultured cells; format: cell-based; details: TRAP assay, MCF7 cells in culture
T2 construct: endogenous in cells; host or cells: MCF-7
Protocol: Telomeric Repeat Amplification Protocol Assay. The telomeric repeat amplification protocol (TRAP) assay was performed using the TRAPeze RT Telomerase Detection Kit (EMD Millipore) and iTaq DNA polymerase (Bio-Rad) according to the manufacturer's protocol.
Cultured Cells TRAP Analysis. MCF-7, HeLa, ACHN, MDA-MB231 and A549 cells were cultured in DMEM media supplemented with 10% Fetal Bovine Serum (FBS), 1% pen/strep and with 5% CO2 and 37° C. Cells were plated in 96 well plates and allowed to attach for 24 h. Media was removed, and fresh media containing various concentrations of compound was added, and the plate was incubated for 24 h. […] The cell extract was then centrifuged at 12,000×g for 20 min at 4° C. to remove cell debris. Note: “fresh” media constitutes media supplemented with 10% Fetal Bovine Serum (FBS) and 1% pen/strep that has not been previously used for cell culture (e.g., not conditioned media). TRAP analysis was conducted as above.

Plasma stability assay = format: in vitro ADME; details: in words
MCF-7 proteome = assay: Competitive gel imaging with 5-iodoacetamido-fluorescein (competitive ABPP); format: binding, human; details: 10 nM to 100 μM, 1 hr, then fluorescein-iodoacetamide 10 μM
Protocol: Competitive Gel Image Analysis. MCF-7 cells were cultured in DMEM media supplemented with 10% Fetal Bovine Serum (FBS), 1% pen/strep and with 5% CO2 and 37° C. Cells were plated cultured for 3 days. Flasks were rinsed twice with PBS and treated with 0.05% trypsin-EDTA (Thermo Fisher) to detach cells. The cell suspension was washed twice in PBS and the cell pellet was resuspended in 200 μl of M-PER extraction reagent (Thermo Fisher)/10^6 cells, and incubated for 30 min. Cell extracts were transferred to microcentrifuge tubes, 200 μl/tube, and centrifuged at 12,000×g for 20 min to remove cell debris. The corresponding lysate was then further diluted to a total protein concentration of 2 mg/mL as measured by Nanodrop (Thermo Fisher). 48 μL of MCF-7 lysate was added to twelve microcentrifuge tubes (six per compound), followed by treatment of cell lysate with 1 μL solution of NU-1/chrolactomycin (equating to doses ranging from 10 nM to 100 μM). The samples were incubated for 1 hr, followed by addition of 1 μl of 5-iodoacetamido-fluorescein to a final concentration of 10 μM. The samples were again incubated for 1 hr, followed by quenching the reaction with 15 μL NuPAGE LDS Sample Buffer (4×). […]

MCF-7 cells = assay: Compound washout cell viability; format: cell-based, human; details: washed, fresh media, 24 h
Protocol: Compound Washout Cell Viability Measurements. MCF-7 cells were plated in 96 well plates and allowed to attach for 24 h. Media was removed, and fresh media containing various concentrations of compound was added, and the plate was incubated for 24 h. Media was removed, cells were washed 2 times with PBS, and fresh media without compound was added. Cells were incubated at 37° C. for an additional “X” h and analyzed as above. Note: “fresh” media constitutes media supplemented with 10% Fetal Bovine Serum (FBS) and 1% pen/strep that has not been previously used for cell culture (e.g., not conditioned media).

Lipophilicity = format: physicochemical; details: in words
CYP1A2 = target: T3, CYP1A2 (Homo sapiens, UniProt P05177); assay: CYP450 inhibition assay; format: in vitro ADME; details: in words
T3 construct: purchased Thermo Fisher
T3 sequence (P05177 1-516): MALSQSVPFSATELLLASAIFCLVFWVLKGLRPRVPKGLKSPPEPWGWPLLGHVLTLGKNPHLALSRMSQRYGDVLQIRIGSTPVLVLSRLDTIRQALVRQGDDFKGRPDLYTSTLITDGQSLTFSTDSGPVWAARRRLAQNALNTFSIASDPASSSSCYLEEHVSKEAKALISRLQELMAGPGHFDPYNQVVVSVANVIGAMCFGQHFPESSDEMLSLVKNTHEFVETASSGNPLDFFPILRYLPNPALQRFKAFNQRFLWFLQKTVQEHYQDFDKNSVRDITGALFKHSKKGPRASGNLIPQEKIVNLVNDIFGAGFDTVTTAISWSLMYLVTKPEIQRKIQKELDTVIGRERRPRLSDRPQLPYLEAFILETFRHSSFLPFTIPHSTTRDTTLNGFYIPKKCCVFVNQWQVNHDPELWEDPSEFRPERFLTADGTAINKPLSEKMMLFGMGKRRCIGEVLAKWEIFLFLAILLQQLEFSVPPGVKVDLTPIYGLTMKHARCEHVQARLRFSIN
Protocol: CYP450 Inhibition Assay. Assay was conducted using the commercially available Vivid CYP1A2 Screening Kit (Thermo Fisher) according to the manufacturer's protocol. α-napthoflavone and DMSO were used as a positive and negative control respectively based on the manufacturer's protocol.

T2 sequence (O14746 whole entry): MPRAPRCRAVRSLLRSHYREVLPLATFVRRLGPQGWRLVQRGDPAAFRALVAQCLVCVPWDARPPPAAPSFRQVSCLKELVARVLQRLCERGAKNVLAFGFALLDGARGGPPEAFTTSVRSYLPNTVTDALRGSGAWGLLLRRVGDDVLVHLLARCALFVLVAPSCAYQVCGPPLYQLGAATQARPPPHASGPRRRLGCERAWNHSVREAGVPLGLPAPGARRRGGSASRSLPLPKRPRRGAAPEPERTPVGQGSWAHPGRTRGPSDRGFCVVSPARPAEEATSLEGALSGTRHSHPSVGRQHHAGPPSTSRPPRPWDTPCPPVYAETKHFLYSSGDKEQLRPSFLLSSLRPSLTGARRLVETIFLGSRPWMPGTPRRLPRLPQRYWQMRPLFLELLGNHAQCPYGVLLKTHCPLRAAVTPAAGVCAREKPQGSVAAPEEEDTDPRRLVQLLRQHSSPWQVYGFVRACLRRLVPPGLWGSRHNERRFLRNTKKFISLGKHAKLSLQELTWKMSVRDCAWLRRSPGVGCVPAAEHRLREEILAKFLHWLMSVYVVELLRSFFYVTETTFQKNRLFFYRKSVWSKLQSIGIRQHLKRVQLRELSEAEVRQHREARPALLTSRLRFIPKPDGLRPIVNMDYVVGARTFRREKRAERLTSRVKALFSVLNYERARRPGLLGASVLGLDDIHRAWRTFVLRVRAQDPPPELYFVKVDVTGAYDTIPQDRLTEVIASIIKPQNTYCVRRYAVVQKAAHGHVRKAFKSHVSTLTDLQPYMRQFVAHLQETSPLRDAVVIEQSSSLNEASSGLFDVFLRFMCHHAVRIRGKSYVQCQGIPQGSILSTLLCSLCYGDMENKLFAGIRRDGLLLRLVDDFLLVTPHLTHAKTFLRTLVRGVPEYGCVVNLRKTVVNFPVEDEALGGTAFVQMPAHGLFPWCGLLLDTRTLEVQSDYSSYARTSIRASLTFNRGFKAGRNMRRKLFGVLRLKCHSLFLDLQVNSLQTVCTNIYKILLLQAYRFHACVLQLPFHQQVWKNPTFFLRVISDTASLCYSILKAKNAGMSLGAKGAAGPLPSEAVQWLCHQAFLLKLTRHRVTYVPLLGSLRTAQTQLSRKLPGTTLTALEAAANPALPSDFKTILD
T2 sequence (O60832 whole entry partner): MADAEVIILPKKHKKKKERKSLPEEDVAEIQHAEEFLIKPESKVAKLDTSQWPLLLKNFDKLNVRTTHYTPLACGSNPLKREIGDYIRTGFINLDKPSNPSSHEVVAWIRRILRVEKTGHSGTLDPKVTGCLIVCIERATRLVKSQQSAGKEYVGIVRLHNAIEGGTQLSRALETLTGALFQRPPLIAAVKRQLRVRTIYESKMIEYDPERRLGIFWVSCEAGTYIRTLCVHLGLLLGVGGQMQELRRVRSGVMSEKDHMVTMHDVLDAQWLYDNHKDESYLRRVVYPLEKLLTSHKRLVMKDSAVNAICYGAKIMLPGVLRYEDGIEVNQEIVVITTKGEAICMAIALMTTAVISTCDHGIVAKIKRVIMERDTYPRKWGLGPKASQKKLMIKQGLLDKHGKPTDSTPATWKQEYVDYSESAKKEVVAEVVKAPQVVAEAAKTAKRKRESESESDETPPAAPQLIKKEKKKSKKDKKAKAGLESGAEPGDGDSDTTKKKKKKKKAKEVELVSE
T2 sequence (Q9NPE3 whole entry partner): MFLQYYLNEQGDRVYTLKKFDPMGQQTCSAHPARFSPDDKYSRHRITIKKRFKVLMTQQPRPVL
T2 sequence (Q9NX24 whole entry partner): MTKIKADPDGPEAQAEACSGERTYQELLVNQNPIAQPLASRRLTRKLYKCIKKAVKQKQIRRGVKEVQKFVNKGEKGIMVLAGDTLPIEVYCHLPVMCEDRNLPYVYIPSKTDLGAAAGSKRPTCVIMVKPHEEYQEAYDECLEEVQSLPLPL
T2 sequence (Q9NY12 whole entry partner): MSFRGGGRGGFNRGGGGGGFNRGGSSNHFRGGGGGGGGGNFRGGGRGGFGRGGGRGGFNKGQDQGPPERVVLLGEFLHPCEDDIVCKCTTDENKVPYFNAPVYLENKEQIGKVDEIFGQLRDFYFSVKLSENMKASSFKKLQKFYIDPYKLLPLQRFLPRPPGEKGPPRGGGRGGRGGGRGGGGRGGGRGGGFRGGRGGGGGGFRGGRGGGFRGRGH
T2 sequence (Q9BUR4 whole entry partner): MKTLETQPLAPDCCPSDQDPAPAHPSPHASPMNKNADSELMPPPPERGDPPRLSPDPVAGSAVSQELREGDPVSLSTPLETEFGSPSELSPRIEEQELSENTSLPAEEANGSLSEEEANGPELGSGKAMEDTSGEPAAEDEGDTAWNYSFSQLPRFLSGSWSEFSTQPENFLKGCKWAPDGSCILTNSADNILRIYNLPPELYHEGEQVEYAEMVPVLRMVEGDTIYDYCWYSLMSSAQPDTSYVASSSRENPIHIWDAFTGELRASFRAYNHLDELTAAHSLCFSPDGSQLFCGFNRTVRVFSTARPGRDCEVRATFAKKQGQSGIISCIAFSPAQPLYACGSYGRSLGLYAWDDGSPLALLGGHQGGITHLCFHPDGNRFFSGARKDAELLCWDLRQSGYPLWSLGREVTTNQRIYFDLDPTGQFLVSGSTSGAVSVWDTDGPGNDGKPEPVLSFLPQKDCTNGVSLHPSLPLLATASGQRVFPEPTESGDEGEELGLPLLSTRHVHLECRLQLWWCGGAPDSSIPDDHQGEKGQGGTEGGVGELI
T1 sequence (O14746 whole entry): as the sequence (O14746 whole entry) above
T1 sequence (O60832 whole entry partner): as the sequence (O60832 whole entry partner) above
T1 sequence (Q9NPE3 whole entry partner): as the sequence (Q9NPE3 whole entry partner) above
T1 sequence (Q9NX24 whole entry partner): as the sequence (Q9NX24 whole entry partner) above
T1 sequence (Q9NY12 whole entry partner): as the sequence (Q9NY12 whole entry partner) above
T1 sequence (Q9BUR4 whole entry partner): as the sequence (Q9BUR4 whole entry partner) above

endogenous telomerase activity [1]: completely eliminated
microsomal stability [2]: satisfactory performance
IC50 [3]: 270 nM
plasma stability (Plasma stability assay): satisfactory performance
lipophilicity (Lipophilicity): favorable
CYP450 inhibition profile (CYP1A2): favorable
SMILES: C=C1C(=O)[C@](C)(C(=O)OC)[C@H](CCc2cn(Cc3ccc(F)cc3F)nn2)O[C@@H]1C [NU-1, methyl (2S,3R,6R)-2-(2-(1-(2,4-difluorobenzyl)-1H-1,2,3-triazol-4-yl)ethyl)-3,6-dimethyl-5 methylene-4-oxotetrahydro-2H-pyran-3-carboxylate]
effect on viability (Saos-2): did not affect viability
off-target protein labeling (loss of protein banding) (MCF-7 proteome): minimal loss of protein banding and streaking
viability after washout (MCF-7 cells): did not restore
